For 33 compounds, IC50 results are on record in patent US10577363B2, “Substituted piperidine compounds” (EPIZYME, INC., priority 2014, dated 2020).

In this test the target is SMYD3 (Homo sapiens (Human), UniProt Q9H7B4). The test can be described thus: SMYD3 biochemical assay (SPA, 3H-SAM methylation of MEKK2 protein substrate). The settings on record: read-out: SMYD3 Biochem IC50 (μM)*. A digest of the protocol: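 Enzyme: untagged full-length human SMYD3 from E. coli; substrate GST-tagged MEKK2 from insect cells. Buffer 25 mM Tris-Cl pH 8.0, 1 mM TCEP, 0.005% BSG/Tween 20. 30 min compound–enzyme preincubation at RT; 3H-SAM/MEKK2 start; stop with cold SAM (100 uM final); SPA readout in cpm.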

`C[C@H]1C[C@H](NC(=O)c2cc(C3CC3)on2)CCN1S(=O)(=O)C1CC1` [compound 247, 5-cyclopropyl-N-((2S,4R)-1-(cyclopropylsulfonyl)-2-methylpiperidin-4-yl)isoxazole-3-carboxamide]: the IC50 was greater than 10 µM. For `COCCS(=O)(=O)N1CC[C@@H](NC(=O)c2cc(C3CC3)on2)C[C@@H]1C` [compound 248, 5-cyclopropyl-N-((2S,4R)-1-((2-methoxyethyl)sulfonyl)-2-methylpiperidin-4-yl)isoxazole-3-carboxamide], the IC50 was greater than 10 µM. The figure for `CCCS(=O)(=O)N1CC[C@@H](NC(=O)c2cc(C3CC3)on2)C[C@H]1C` [compound 249, 5-cyclopropyl-N-((2R,4R)-2-methyl-1-(propylsulfonyl)piperidin-4-yl)isoxazole-3-carboxamide] is greater than 10 µM; for `CC(C)CS(=O)(=O)N1CC[C@@H](NC(=O)c2cc(C3CC3)on2)C[C@H]1C` [compound 250, 5-cyclopropyl-N-((2R,4R)-1-(isobutylsulfonyl)-2-methylpiperidin-4-yl)isoxazole-3-carboxamide] it is 9.45 µM; for `CCCCS(=O)(=O)N1CC[C@@H](NC(=O)c2cc(C3CC3)on2)C[C@H]1C` [compound 251, N-((2R,4R)-1-(butylsulfonyl)-2-methylpiperidin-4-yl)-5-cyclopropylisoxazole-3-carboxamide] it is 6.15 µM. Consider `CCOC(=O)CS(=O)(=O)N1CC[C@@H](NC(=O)c2cc(C3CC3)on2)C[C@H]1C` [compound 252, ethyl 2-(((2R,4R)-4-(5-cyclopropylisoxazole-3-carboxamido)-2-methylpiperidin-1-yl)sulfonyl)acetate], for which the 50% inhibitory concentration (IC50) was greater than 10 µM. With `C[C@@H]1C[C@H](NC(=O)c2cc(C3CC3)on2)CCN1S(=O)(=O)c1ccc(Cl)nc1` [compound 253, N-((2R,4R)-1-((6-chloropyridin-3-yl)sulfonyl)-2-methylpiperidin-4-yl)-5-cyclopropylisoxazole-3-carboxamide] the figure was greater than 10 µM.

Consider `C[C@@H]1C[C@H](NC(=O)c2cc(C3CC3)on2)CCN1S(=O)(=O)N1CCCC1` [compound 254, 5-cyclopropyl-N-((2R,4R)-2-methyl-1-(pyrrolidin-1-ylsulfonyl)piperidin-4-yl)isoxazole-3-carboxamide], for which the IC50 amounted to 4.14 µM. In the case of `C[C@@H]1C[C@H](NC(=O)c2cc(C3CC3)on2)CCN1S(=O)(=O)N1CCN(C)CC1` [compound 255, 5-cyclopropyl-N-((2R,4R)-2-methyl-1-((4-methylpiperazin-1-yl)sulfonyl)piperidin-4-yl)isoxazole-3-carboxamide], the IC50 amounted to 1.2 µM.

Take `COC(=O)CCS(=O)(=O)N1CC[C@@H](NC(=O)c2cc(C3CC3)on2)C[C@H]1C` [compound 256, methyl 3-(((2R,4R)-4-(5-cyclopropylisoxazole-3-carboxamido)-2-methylpiperidin-1-yl)sulfonyl)propanoate]: the IC50 was greater than 10 µM. The figure for `COCCS(=O)(=O)N1CC[C@@H](NC(=O)c2cc(C3CC3)on2)C[C@H]1C` [compound 257, 5-cyclopropyl-N-((2R,4R)-1-((2-methoxyethyl)sulfonyl)-2-methylpiperidin-4-yl)isoxazole-3-carboxamide] is 9.29 µM; for `C[C@@H]1C[C@H](NC(=O)c2cc(C3CC3)on2)CCN1S(=O)(=O)CCC(F)(F)F` [compound 258, 5-cyclopropyl-N-((2R,4R)-2-methyl-1-((3,3,3-trifluoropropyl)sulfonyl)piperidin-4-yl)isoxazole-3-carboxamide] it is 8.37 µM; for `COCCCS(=O)(=O)N1CC[C@@H](NC(=O)c2cc(C3CC3)on2)C[C@H]1C` [compound 259, 5-cyclopropyl-N-((2R,4R)-1-((3-methoxypropyl)sulfonyl)-2-methylpiperidin-4-yl)isoxazole-3-carboxamide] it is greater than 10 µM. For the compound `CCS(=O)(=O)N1CC[C@H](NC(=O)c2cc(C3CC3)on2)C[C@@H]1C` [compound 260, 5-cyclopropyl-N-((2S,4S)-1-(ethylsulfonyl)-2-methylpiperidin-4-yl)isoxazole-3-carboxamide], the half-inhibitory concentration (IC50) amounted to 2.45 µM. On to `CCS(=O)(=O)N1CC[C@@H](NC(=O)c2cc(C3CC3)on2)C[C@H]1C` [compound 261, 5-cyclopropyl-N-((2R,4R)-1-(ethylsulfonyl)-2-methylpiperidin-4-yl)isoxazole-3-carboxamide], for which the IC50 was greater than 10 µM. The figure for `CCS(=O)(=O)N1CC[C@@H](NC(=O)c2cc(C3CC3)on2)C[C@@H]1C` [compound 262, 5-cyclopropyl-N-((2S,4R)-1-(ethylsulfonyl)-2-methylpiperidin-4-yl)isoxazole-3-carboxamide] is greater than 10 µM; for `C[C@@H]1CC(NC(=O)c2cc(C3CC3)on2)CCN1C(=O)CC1CCCC(N)C1` (stereo partly drawn) [compound 264, N-((2R)-1-(2-(3-aminocyclohexyl)acetyl)-2-methylpiperidin-4-yl)-5-cyclopropylisoxazole-3-carboxamide] it is 0.41 µM; for `C[C@H]1C[C@H](NC(=O)c2cc(C3CC3)on2)CCN1C(=O)CC1(CN)CCCCC1` [compound 266, N-((2S,4R)-1-(2-(1-(aminomethyl)cyclohexyl)acetyl)-2-methylpiperidin-4-yl)-5-cyclopropylisoxazole-3-carboxamide] it is greater than 10 µM. With `C[C@@H]1C[C@@H](NC(=O)c2cc(C3CC3)on2)CCN1C(=O)CC1(CN)CCCCC1` [compound 267, N-((2R,4S)-1-(2-(1-(aminomethyl)cyclohexyl)acetyl)-2-methylpiperidin-4-yl)-5-cyclopropylisoxazole-3-carboxamide], the IC50 amounted to 8.52 µM. The figure for `C[C@@H]1C[C@@H](NC(=O)c2cc(C3CC3)on2)CCN1C(=O)CC(C)(C)CN` [compound 268, N-((2R,4S)-1-(4-amino-3,3-dimethylbutanoyl)-2-methylpiperidin-4-yl)-5-cyclopropylisoxazole-3-carboxamide] is 3.15 µM. With `C[C@H]1C[C@H](NC(=O)c2cc(C3CC3)on2)CCN1C(=O)CCCCN` [compound 273, N-((2S,4R)-1-(5-aminopentanoyl)-2-methylpiperidin-4-yl)-5-cyclopropylisoxazole-3-carboxamide] the figure was 7.83 µM; with `C[C@H]1C[C@@H](NC(=O)c2cc(C3CC3)on2)CCN1S(=O)(=O)C1CC1` [compound 276, 5-cyclopropyl-N-((2S,4S)-1-(cyclopropylsulfonyl)-2-methylpiperidin-4-yl)isoxazole-3-carboxamide], 3.63 µM; with `C[C@H]1C[C@@H](NC(=O)c2cc(C3CC3)on2)CCN1S(=O)(=O)N1CCCC1` [compound 277, 5-cyclopropyl-N-((2S,4S)-2-methyl-1-(pyrrolidin-1-ylsulfonyl)piperidin-4-yl)isoxazole-3-carboxamide], 0.654 µM. The figure for `CNS(=O)(=O)N1CC[C@H](NC(=O)c2cc(C3CC3)on2)C[C@@H]1C` [compound 278, 5-cyclopropyl-N-((2S,4S)-2-methyl-1-(N-methylsulfamoyl)piperidin-4-yl)isoxazole-3-carboxamide] is 2.89 µM; for `COC(=O)CCS(=O)(=O)N1CC[C@H](NC(=O)c2cc(C3CC3)on2)C[C@@H]1C` [compound 280, methyl 3-(((2S,4S)-4-(5-cyclopropylisoxazole-3-carboxamido)-2-methylpiperidin-1-yl)sulfonyl)propanoate] it is 4.85 µM. As to `COCCCS(=O)(=O)N1CC[C@H](NC(=O)c2cc(C3CC3)on2)C[C@@H]1C` [compound 281, 5-cyclopropyl-N-((2S,4S)-1-((3-methoxypropyl)sulfonyl)-2-methylpiperidin-4-yl)isoxazole-3-carboxamide], the IC50 is 1.87 µM. The figure for `COC(=O)CCS(=O)(=O)N1CC[C@H](NC(=O)c2cc(C3CC3)on2)C[C@H]1C` [compound 282, methyl 3-(((2R,4S)-4-(5-cyclopropylisoxazole-3-carboxamido)-2-methylpiperidin-1-yl)sulfonyl)propanoate] is greater than 10 µM. With `COCCCS(=O)(=O)N1CC[C@H](NC(=O)c2cc(C3CC3)on2)C[C@H]1C` [compound 284, 5-cyclopropyl-N-((2R,4S)-1-((3-methoxypropyl)sulfonyl)-2-methylpiperidin-4-yl)isoxazole-3-carboxamide] the figure was greater than 10 µM. The figure for `CC(C)OCCS(=O)(=O)N1CC[C@H](NC(=O)c2cc(C3CC3)on2)C[C@H]1C` [compound 285, 5-cyclopropyl-N-((2R,4S)-1-((2-isopropoxyethyl)sulfonyl)-2-methylpiperidin-4-yl)isoxazole-3-carboxamide] is greater than 10 µM. Consider `C[C@H]1C[C@H](NC(=O)c2cc(C3CC3)on2)CCN1S(=O)(=O)c1ccc(Cl)nc1` [compound 287, N-((2S,4R)-1-((6-chloropyridin-3-yl)sulfonyl)-2-methylpiperidin-4-yl)-5-cyclopropylisoxazole-3-carboxamide], for which the 50% inhibitory concentration (IC50) was greater than 10 µM. The figure for `C[C@H]1C[C@H](NC(=O)c2cc(C3CC3)on2)CCN1S(=O)(=O)N1CCCC1` [compound 288, 5-cyclopropyl-N-((2S,4R)-2-methyl-1-(pyrrolidin-1-ylsulfonyl)piperidin-4-yl)isoxazole-3-carboxamide] is greater than 10 µM. The figure for `CNS(=O)(=O)N1CC[C@@H](NC(=O)c2cc(C3CC3)on2)C[C@@H]1C` [compound 289, 5-cyclopropyl-N-((2S,4R)-2-methyl-1-(N-methylsulfamoyl)piperidin-4-yl)isoxazole-3-carboxamide] is greater than 10 µM; for `COC(=O)CCS(=O)(=O)N1CC[C@@H](NC(=O)c2cc(C3CC3)on2)C[C@@H]1C` [compound 290, methyl 3-(((2S,4R)-4-(5-cyclopropylisoxazole-3-carboxamido)-2-methylpiperidin-1-yl)sulfonyl)propanoate] it is greater than 10 µM.

The IC50 is the concentration at which inhibition is half-maximal.
